Results from ChEMBL document CHEMBL1131414, “Dual D2-receptor and beta2-adrenoceptor agonists for the treatment of airway diseases. 1. Discovery and biological evaluation of some 7-(2-aminoethyl)-4-hydroxybenzothiazol-2(3H)-one analogues” (J Med Chem, 1998).
The source made the active and inactive calls. The calls are words filed in the database; no cut-off is given here.

Tests used:
[1] = molecular target: Adrenergic receptor alpha-1 (Homo sapiens) (UniProt P35348+P25100+P35368); assay: Tested in vitro for binding activity to Alpha-1 adrenergic receptor in field stimulated rabbit ear artery (REA).; details: Oryctolagus cuniculus; target entry is the homologue from another species
[2] = molecular target: Beta-2 adrenergic receptor (Cavia porcellus) (UniProt Q8K4Z4); assay: Tested in vitro for binding activity to Beta-2 adrenergic receptor in guinea pig trachea (GPT).; type: tissue-based
Sequence of Beta-2 adrenergic receptor (Cavia porcellus) (Q8K4Z4 whole entry, looked up): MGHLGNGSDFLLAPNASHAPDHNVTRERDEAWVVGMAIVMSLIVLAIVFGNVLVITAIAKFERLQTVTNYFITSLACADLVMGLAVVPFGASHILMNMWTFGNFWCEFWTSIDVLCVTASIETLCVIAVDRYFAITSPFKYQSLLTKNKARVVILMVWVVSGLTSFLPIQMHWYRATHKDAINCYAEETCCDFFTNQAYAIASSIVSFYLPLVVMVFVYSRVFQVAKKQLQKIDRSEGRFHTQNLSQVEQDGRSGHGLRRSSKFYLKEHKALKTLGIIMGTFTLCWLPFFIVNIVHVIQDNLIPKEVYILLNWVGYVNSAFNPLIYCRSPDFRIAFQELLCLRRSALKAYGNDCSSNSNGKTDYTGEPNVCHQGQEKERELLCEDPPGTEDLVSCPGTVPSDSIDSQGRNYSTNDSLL

[3] = molecular target: D(2) dopamine receptor (Homo sapiens) (UniProt P14416); assay: Tested in vitro for binding activity to Dopamine receptor D2 in field stimulated rabbit ear artery (D2-REA); f denotes 'Data compromised by high […] agonist activity'; details: Oryctolagus cuniculus; target entry is the homologue from another species
Sequence of D(2) dopamine receptor (Homo sapiens) (P14416 whole entry): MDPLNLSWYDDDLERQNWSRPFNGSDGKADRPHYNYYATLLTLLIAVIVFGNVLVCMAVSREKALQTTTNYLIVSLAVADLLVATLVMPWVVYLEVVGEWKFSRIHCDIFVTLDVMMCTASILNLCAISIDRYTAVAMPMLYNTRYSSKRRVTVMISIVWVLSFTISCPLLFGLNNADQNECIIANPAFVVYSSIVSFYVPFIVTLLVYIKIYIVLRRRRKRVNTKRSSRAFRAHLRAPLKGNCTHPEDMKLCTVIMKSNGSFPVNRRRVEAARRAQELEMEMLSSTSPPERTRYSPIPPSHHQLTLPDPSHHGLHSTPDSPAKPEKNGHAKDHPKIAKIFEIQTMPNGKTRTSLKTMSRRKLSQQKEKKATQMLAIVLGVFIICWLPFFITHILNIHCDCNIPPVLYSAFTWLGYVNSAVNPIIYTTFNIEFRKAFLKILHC

[4] = molecular target: D(2) dopamine receptor (Bos taurus) (UniProt P20288); assay: Tested in vitro for binding activity to Dopamine receptor D2 in bovine pituitary membranes (D2-LB); type: cell membranes
Sequence of D(2) dopamine receptor (Bos taurus) (P20288 whole entry): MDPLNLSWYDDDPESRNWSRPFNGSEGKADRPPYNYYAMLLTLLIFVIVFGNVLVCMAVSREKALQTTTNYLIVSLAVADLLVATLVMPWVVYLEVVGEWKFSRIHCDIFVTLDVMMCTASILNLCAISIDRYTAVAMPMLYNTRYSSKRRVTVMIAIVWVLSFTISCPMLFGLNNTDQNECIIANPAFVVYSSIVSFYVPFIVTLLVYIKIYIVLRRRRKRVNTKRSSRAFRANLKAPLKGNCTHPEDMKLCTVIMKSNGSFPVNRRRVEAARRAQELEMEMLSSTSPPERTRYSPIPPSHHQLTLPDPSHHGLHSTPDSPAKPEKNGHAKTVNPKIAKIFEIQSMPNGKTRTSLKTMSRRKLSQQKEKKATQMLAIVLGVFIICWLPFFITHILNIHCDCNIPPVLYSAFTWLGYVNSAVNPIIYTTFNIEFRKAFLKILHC

[5] = molecular target: D(2) dopamine receptor (Homo sapiens) (UniProt P14416); assay: Tested in vitro for binding activity to Dopamine receptor D2 in field stimulated rabbit ear artery (D2-REA).; details: Oryctolagus cuniculus; target entry is the homologue from another species

Compound	p[A]50 [1]	p[A]50 [2]	p[A]50 [3]	pKH [4]	pKL [4]	p[A]50 [5]
OCc1cc(C(O)CNCCCCCCOCCCCc2ccccc2)ccc1O (configuration not stated)	5.49	7.52				
Oc1nc2c(O)ccc(CCNCCCCCCOCCCCc3ccccc3)c2s1	6.85	7.33	inactive	9.33	7.11	
Oc1nc2c(O)ccc(CCNCCCCCCNCCc3ccccc3)c2s1	6.81	7.19	inactive	8.99	6.44	
CCCN(CCC)CCc1ccc(O)c2nc(O)sc12	6.03	< 5		9.34	6.85	9.6
Oc1nc2c(O)ccc(CCNCCCCCCOCCc3ccccc3)c2s1	7.56	7.89	inactive	9.01	6.93	
O=c1[nH]c2c(O)ccc(CCNCCS(=O)(=O)CCCOCCc3ccccc3)c2s1	6.08	7.95		8.61	6.48	8.94
